Laboratory results taken from the NIST ThermoML archive (doi:10.1021/je9003178).
± gives the expanded uncertainty stated by the source.

Test: activity coefficient (dimensionless); of the first substance listed, at infinite dilution; xn = mol fraction of the nth substance listed
Details: Liquid, Chromatography, x1 = 0

Row | Compound | activity coefficient (322.65 K) | activity coefficient (343.85 K) | activity coefficient (352.65 K) | activity coefficient (332.85 K) | activity coefficient (343.15 K)
1 | CCCC(C)=O [pentan-2-one] + CCCCCC[N+](C)(C)C.O=S(=O)([N-]S(=O)(=O)C(F)(F)F)C(F)(F)F | 0.612 ± 0.031 | 0.638 ± 0.03 | 0.663 ± 0.03 |  | 
2 | Cc1ccc(C)cc1 [1,4-dimethylbenzene] + CCn1cc[n+](C)c1.N#CN=C=[N-] | 6.93 ± 0.32 |  |  | 7.05 ± 0.32 | 6.79 ± 0.31
3 | C1CCCCCC1 [cycloheptane] + CCCCCC[N+](C)(C)C.O=S(=O)([N-]S(=O)(=O)C(F)(F)F)C(F)(F)F | 14.3 ± 0.66 | 33.3 ± 1.5 | 43.4 ± 2 |  | 
4 | CC(C)OC(C)C [diisopropyl ether] + CCCCCC[N+](C)(C)C.O=S(=O)([N-]S(=O)(=O)C(F)(F)F)C(F)(F)F | 3.2 ± 0.15 | 4.03 ± 0.18 | 4.12 ± 0.19 |  | 
5 | ClC(Cl)(Cl)Cl [tetrachloromethane] + CCCCCC[N+](C)(C)C.O=S(=O)([N-]S(=O)(=O)C(F)(F)F)C(F)(F)F | 2.42 ± 0.11 | 2.39 ± 0.11 | 2.42 ± 0.11 |  | 
6 | c1ccsc1 [thiophene] + CCCCCC[N+](C)(C)C.O=S(=O)([N-]S(=O)(=O)C(F)(F)F)C(F)(F)F | 0.921 ± 0.026 | 0.92 ± 0.026 | 0.941 ± 0.026 |  | 
7 | CCCCCCC [heptane] + CCn1cc[n+](C)c1.N#CN=C=[N-] | 183 ± 8.7 |  |  | 159 ± 7.5 | 139 ± 6.6
8 | CO [methanol] + CCn1cc[n+](C)c1.N#CN=C=[N-] | 0.44 ± 0.03 |  |  | 0.42 ± 0.03 | 0.41 ± 0.03
9 | CCO [ethanol] + CCCCCC[N+](C)(C)C.O=S(=O)([N-]S(=O)(=O)C(F)(F)F)C(F)(F)F | 2.41 ± 0.11 | 1.28 ± 0.043 | 1.21 ± 0.039 |  | 
10 | CCCCCCCC [octane] + CCn1cc[n+](C)c1.N#CN=C=[N-] | 290 ± 14 |  |  | 260 ± 12 | 234 ± 11
11 | CCOCC [diethyl ether] + CCn1cc[n+](C)c1.N#CN=C=[N-] | 9.88 ± 0.45 |  |  | 9.71 ± 0.45 | 9.56 ± 0.44
12 | Cc1ccccc1C [1,2-dimethylbenzene] + CCn1cc[n+](C)c1.N#CN=C=[N-] | 5.86 ± 0.27 |  |  | 5.8 ± 0.27 | 5.75 ± 0.26
13 | C=O [methanal] + CCCCCC[N+](C)(C)C.O=S(=O)([N-]S(=O)(=O)C(F)(F)F)C(F)(F)F | 0.228 ± 0.037 | 0.272 ± 0.036 | 0.311 ± 0.035 |  | 
14 | CCCCCC [hexane] + CCCCCC[N+](C)(C)C.O=S(=O)([N-]S(=O)(=O)C(F)(F)F)C(F)(F)F | 9.81 ± 0.45 | 9.02 ± 0.41 | 8.85 ± 0.41 |  | 
15 | CC1CCCCC1 [methylcyclohexane] + CCn1cc[n+](C)c1.N#CN=C=[N-] | 73.9 ± 3.5 |  |  | 67.1 ± 3.1 | 61.3 ± 2.9
16 | CCCCCCCC [octane] + CCCCCC[N+](C)(C)C.O=S(=O)([N-]S(=O)(=O)C(F)(F)F)C(F)(F)F | 19 ± 0.88 | 16.8 ± 0.78 | 16.2 ± 0.75 |  | 
17 | CCCC=O [butanal] + CCCCCC[N+](C)(C)C.O=S(=O)([N-]S(=O)(=O)C(F)(F)F)C(F)(F)F | 0.657 ± 0.03 | 0.661 ± 0.03 | 0.677 ± 0.03 |  | 
18 | CCCC(C)=O [pentan-2-one] + CCn1cc[n+](C)c1.N#CN=C=[N-] | 2.92 ± 0.13 |  |  | 2.93 ± 0.13 | 2.9 ± 0.13
19 | C1CCCCC1 [cyclohexane] + CCCCCC[N+](C)(C)C.O=S(=O)([N-]S(=O)(=O)C(F)(F)F)C(F)(F)F | 6.6 ± 0.3 | 5.9 ± 0.27 | 5.74 ± 0.26 |  | 
20 | CCCCCCCCCCCCC [tridecane] + CCCCCC[N+](C)(C)C.O=S(=O)([N-]S(=O)(=O)C(F)(F)F)C(F)(F)F | 100 ± 4.7 | 76.2 ± 3.6 | 71.5 ± 3.3 |  | 
21 | ClC(Cl)Cl [trichloromethane] + CCCCCC[N+](C)(C)C.O=S(=O)([N-]S(=O)(=O)C(F)(F)F)C(F)(F)F | 0.89 ± 0.027 | 0.929 ± 0.026 | 0.966 ± 0.026 |  | 
22 | Cc1cccc(C)c1 [1,3-dimethylbenzene] + CCCCCC[N+](C)(C)C.O=S(=O)([N-]S(=O)(=O)C(F)(F)F)C(F)(F)F | 1.8 ± 0.077 | 1.82 ± 0.078 | 1.89 ± 0.083 |  | 
23 | CC(C)OC(C)C [diisopropyl ether] + CCn1cc[n+](C)c1.N#CN=C=[N-] | 32.1 ± 1.5 |  |  | 32.3 ± 1.5 | 32.4 ± 1.5
24 | CC(C)O [propan-2-ol] + CCn1cc[n+](C)c1.N#CN=C=[N-] | 1.2 ± 0.04 |  |  | 1.14 ± 0.03 | 1.09 ± 0.03
25 | C1COCCO1 [1,4-dioxane] + CCCCCC[N+](C)(C)C.O=S(=O)([N-]S(=O)(=O)C(F)(F)F)C(F)(F)F | 0.655 ± 0.03 | 0.661 ± 0.03 | 0.68 ± 0.03 |  | 
26 | CCCCO [butan-1-ol] + CCn1cc[n+](C)c1.N#CN=C=[N-] | 1.59 ± 0.06 |  |  | 1.47 ± 0.06 | 1.4 ± 0.05

Row | Compound | activity coefficient (322.65 K) | activity coefficient (343.85 K) | activity coefficient (352.65 K) | activity coefficient (332.85 K) | activity coefficient (343.15 K)
27 | c1ccsc1 [thiophene] + CCn1cc[n+](C)c1.N#CN=C=[N-] | 1.6 ± 0.06 |  |  | 1.51 ± 0.06 | 1.53 ± 0.06
28 | CCC(C)=O [butanone] + CCCCCC[N+](C)(C)C.O=S(=O)([N-]S(=O)(=O)C(F)(F)F)C(F)(F)F | 0.422 ± 0.034 | 0.365 ± 0.035 | 0.354 ± 0.035 |  | 
29 | CC#N [acetonitrile] + CCCCCC[N+](C)(C)C.O=S(=O)([N-]S(=O)(=O)C(F)(F)F)C(F)(F)F | 0.486 ± 0.033 | 0.46 ± 0.033 | 0.465 ± 0.033 |  | 
30 | Cc1ccccc1 [toluene] + CCCCCC[N+](C)(C)C.O=S(=O)([N-]S(=O)(=O)C(F)(F)F)C(F)(F)F | 1.31 ± 0.045 | 1.33 ± 0.046 | 1.38 ± 0.05 |  | 
31 | OCC(F)(F)F [2,2,2-trifluoroethanol] + CCCCCC[N+](C)(C)C.O=S(=O)([N-]S(=O)(=O)C(F)(F)F)C(F)(F)F | 0.157 ± 0.038 | 0.402 ± 0.034 | 0.393 ± 0.034 |  | 
32 | C[N+](=O)[O-] [nitromethane] + CCCCCC[N+](C)(C)C.O=S(=O)([N-]S(=O)(=O)C(F)(F)F)C(F)(F)F | 0.975 ± 0.025 | 0.567 ± 0.031 | 0.568 ± 0.031 |  | 
33 | C#CCCCC [1-hexyne] + CCCCCC[N+](C)(C)C.O=S(=O)([N-]S(=O)(=O)C(F)(F)F)C(F)(F)F | 2.62 ± 0.12 | 2.56 ± 0.12 | 2.58 ± 0.12 |  | 
34 | CCCO [propan-1-ol] + CCn1cc[n+](C)c1.N#CN=C=[N-] | 1.07 ± 0.03 |  |  | 1.01 ± 0.03 | 0.97 ± 0.03
35 | CC1CCCC1 [methylcyclopentane] + CCCCCC[N+](C)(C)C.O=S(=O)([N-]S(=O)(=O)C(F)(F)F)C(F)(F)F | 6.61 ± 0.3 | 5.96 ± 0.27 | 5.83 ± 0.27 |  | 
36 | C#CCCCCC [1-heptyne] + CCn1cc[n+](C)c1.N#CN=C=[N-] | 14.5 ± 0.67 |  |  | 14.3 ± 0.66 | 14.1 ± 0.65
37 | ClCCl [dichloromethane] + CCn1cc[n+](C)c1.N#CN=C=[N-] | 0.67 ± 0.03 |  |  | 0.73 ± 0.03 | 0.78 ± 0.03
38 | CC(C)O [propan-2-ol] + CCCCCC[N+](C)(C)C.O=S(=O)([N-]S(=O)(=O)C(F)(F)F)C(F)(F)F | 1.69 ± 0.07 | 1.39 ± 0.051 | 1.33 ± 0.046 |  | 
39 | CCCCCCCCCC [decane] + CCCCCC[N+](C)(C)C.O=S(=O)([N-]S(=O)(=O)C(F)(F)F)C(F)(F)F | 36.8 ± 1.7 | 31 ± 1.4 | 29.6 ± 1.4 |  | 
40 | CC1CCCCC1 [methylcyclohexane] + CCCCCC[N+](C)(C)C.O=S(=O)([N-]S(=O)(=O)C(F)(F)F)C(F)(F)F | 8.67 ± 0.4 | 7.78 ± 0.36 | 7.54 ± 0.35 |  | 
41 | OCC(F)(F)F [2,2,2-trifluoroethanol] + CCn1cc[n+](C)c1.N#CN=C=[N-] | 0.1 ± 0.04 |  |  | 0.11 ± 0.04 | 0.11 ± 0.04
42 | c1ccccc1 [benzene] + CCCCCC[N+](C)(C)C.O=S(=O)([N-]S(=O)(=O)C(F)(F)F)C(F)(F)F | 0.99 ± 0.025 | 0.993 ± 0.025 | 1.02 ± 0.026 |  | 
43 | CCCCCCCCCCCCCC [tetradecane] + CCCCCC[N+](C)(C)C.O=S(=O)([N-]S(=O)(=O)C(F)(F)F)C(F)(F)F | 159 ± 7.5 | 101 ± 4.7 | 84.7 ± 4 |  | 
44 | CCN(CC)CC [triethylamine] + CCn1cc[n+](C)c1.N#CN=C=[N-] | 9.09 ± 0.42 |  |  | 35.8 ± 1.7 | 131 ± 6.2
45 | CCC=O [propanal] + CCCCCC[N+](C)(C)C.O=S(=O)([N-]S(=O)(=O)C(F)(F)F)C(F)(F)F | 0.508 ± 0.032 | 0.502 ± 0.032 | 0.505 ± 0.032 |  | 
46 | CCCCCC [hexane] + CCn1cc[n+](C)c1.N#CN=C=[N-] | 111 ± 5.2 |  |  | 99.6 ± 4.7 | 89.5 ± 4.2
47 | CCC(C)=O [butanone] + CCn1cc[n+](C)c1.N#CN=C=[N-] | 1.59 ± 0.06 |  |  | 1.46 ± 0.06 | 1.33 ± 0.05
48 | C=CCCCC [hex-1-ene] + CCn1cc[n+](C)c1.N#CN=C=[N-] | 43.6 ± 2 |  |  | 41.6 ± 1.9 | 39.9 ± 1.9
49 | ClC(Cl)(Cl)Cl [tetrachloromethane] + CCn1cc[n+](C)c1.N#CN=C=[N-] | 4.49 ± 0.2 |  |  | 4.61 ± 0.21 | 4.71 ± 0.21
50 | CC#N [acetonitrile] + CCn1cc[n+](C)c1.N#CN=C=[N-] | 0.8 ± 0.03 |  |  | 0.79 ± 0.03 | 0.79 ± 0.03
51 | CCc1ccccc1 [ethylbenzene] + CCCCCC[N+](C)(C)C.O=S(=O)([N-]S(=O)(=O)C(F)(F)F)C(F)(F)F | 1.83 ± 0.079 | 1.91 ± 0.084 | 1.97 ± 0.088 |  | 
